Measurements taken from patent US3931344A, “Bromofluorocyclopropanes” (priority 1974, dated 1976).

How the values were obtained:
Type in all cases: in vivo
[1] = inhalation anesthesia test in mice (10 min exposure in a rotating drum; pinch, corneal and righting reflexes); details: mouse, in vivo, inhaled or intranasal; calculated from LC50 and AC50 in mice; read-out: AI (anesthetic index, LC50/AC50)
Protocol: (§1) Mice were exposed to the anesthetic for a period of 10 minutes in a rotating drum. Observations were then made of the pinch reflex, the corneal reflex and the return of the righting reflex. At least four graded doses were employed to determine the minimum concentration required to anesthetize 50% of the mice used (AC50) and the minimum concentration required to kill 50% of the mice (LC50). The anesthetic index (AI) was then calculated from these minimum concentrations.

[2] = tested on: mice; assay: as above; details: for potency as general anesthetics: administered in inhalation-anesthetic-susceptible organisms, in words; for AC50 (minimum concentration required to anesthetize 50% of the mice): inhalation, 10 minutes, rotating drum, at least four graded doses
Protocol: as §1

[3] = tested on: mice; assay: lethality in mice on inhalation (LC50); details: 10 minutes, rotating drum, when two figures are given, the actual value lies between them
Protocol: as §1

Row | Structure (SMILES) | selectivity ratio at 10 min [1] | potency as general anesthetics [2] | AC50 (minimum concentration required to anesthetize 50% of the mice) [2] [% volume] | LC50 (minimum concentration required to kill 50% of the mice) [3]
1 | CC1CC1(F)Br (centres unmarked) [Example 4, 1-bromo-1-fluoro-2-methylcyclopropane] | > 2 | high potency | < 2 | 4-6 % volume
2 | CC1(F)CC1(F)Br (centres unmarked) [Example 3, 1-bromo-1,2-difluoro-2-methylcyclopropane] | 10 | high potency | 0.5 | 5 % volume
